Mutagenic call and call data for 29 molecules are collected here from PubChem BioAssay AID1259408 (Genetic Toxicology Data Bank (GENE-TOX), 2018).

This series has as its system GENE-TOX genotoxicity assays, various organisms and cells. The series is described as follows: GENE-TOX mutagenicity studies. The conditions noted are these: for call: Assay Type: In vivo carcinogenicity studies.
Setting [1] is: Species/Cell Type: Human lymphocytes, Assay Type: Sister-chromatid exchange (SCE) in vitro, Assay Code: SCLT, Evaluation Type: Evaluation B (Post-1980).
The mark [2] stands for this setting: Species/Cell Type: Human, Assay Type: Sister-chromatid exchange (SCE) in vitro, Assay Code: SC1T, Evaluation Type: Evaluation B (Post-1980).
[3] abbreviates: Species/Cell Type: Nonhuman, Assay Type: Sister-chromatid exchange (SCE) in vitro, Assay Code: SC2+D, Dose Response: With dose response, Evaluation Type: Evaluation B (Post-1980).
[4] abbreviates: Species/Cell Type: Salmonella typhimurium (one or more of the five standard strains: TA98, TA100, TA1535, TA1537, and TA1538), Assay Type: Histidine reverse gene mutation, Ames assay, Assay Code: SAL+, Evaluation Type: Evaluation A (Pre-1980).
The mark [5] stands for this setting: Species/Cell Type: Salmonella typhimurium (one or more of the five standard strains: TA98, TA100, TA1535, TA1537, and TA1538), Assay Type: Histidine reverse gene mutation, Ames assay, Assay Code: SALT, Evaluation Type: Evaluation A (Pre-1980).
The mark [6] stands for this setting: Species/Cell Type: Drosophila melanogaster, Assay Type: Sex-linked recessive lethal gene mutation, Assay Code: SRL+, Evaluation Type: Evaluation A (Pre-1980).
The mark [7] stands for this setting: Species/Cell Type: Nonhuman, Assay Type: Sister-chromatid exchange (SCE) in vivo, Assay Code: SC3-, Evaluation Type: Evaluation B (Post-1980).
Setting [8] is: Species/Cell Type: Saccharomyces cerevisiae, Assay Type: Mitotic recombination or gene conversion, Assay Code: YEC+, Evaluation Type: Evaluation A (Pre-1980).
Where [9] appears, read: Species/Cell Type: Human lymphocytes, Assay Type: Sister-chromatid exchange (SCE) in vitro, Assay Code: SCL+, Evaluation Type: Evaluation B (Post-1980).
Setting [10] is: Species/Cell Type: Human, Assay Type: Sister-chromatid exchange (SCE) in vitro, Assay Code: SC1+, Evaluation Type: Evaluation B (Post-1980).
The mark [11] stands for this setting: Species/Cell Type: Saccharomyces cerevisiae, Assay Type: Mitotic recombination or gene conversion, Assay Code: YEH+, Evaluation Type: Evaluation A (Pre-1980).
Setting [12] is: Species/Cell Type: Saccharomyces cerevisiae, Assay Type: Reverse gene mutation, Assay Code: YER+, Evaluation Type: Evaluation A (Pre-1980).

Calls of active or inactive are those of the source. The rule behind the calls is not given here.

On to `CN[C@H]1CCc2cc(OC)c(OC)c(OC)c2-c2ccc(OC)c(=O)cc21`, for which the mutagenic call runs as follows: (Species/Cell Type: Drosophila melanogaster, Assay Type: Aneuploidy, sex chromosome gain, chromosome aberrations, Assay Code: DAG+F, Evaluation Type: Evaluation A (Pre-1980)) “active; positive”; (Species/Cell Type: Drosophila melanogaster, Assay Type: Aneuploidy, whole sex chromosome loss, chromosome aberrations, Assay Code: DAC+F, Evaluation Type: Evaluation A (Pre-1980)) “active; positive”; under setting [1], “no conclusion”; under setting [2], “no conclusion”; (Species/Cell Type: Mammalian polychromatic erythrocytes, Assay Type: Micronucleus test, chromosome aberrations, Assay Code: MNT+, Evaluation Type: Evaluation A (Pre-1980)) “active; positive”; (Species/Cell Type: Nonhuman, Assay Type: Sister-chromatid exchange (SCE) in vitro, Assay Code: SC2T, Evaluation Type: Evaluation B (Post-1980)) “no conclusion”.
For `Cc1[nH]cnc1CSCCN(N=O)C(=NC#N)N(C)N=O`, the mutagenic call under setting [3] is “active; positive”.
With `CN(C)C(=O)Nc1ccc(Oc2ccc(Cl)cc2)cc1`, the mutagenic call (Species/Cell Type: Saccharomyces cerevisiae, Assay Type: Mitotic recombination or gene conversion, Assay Code: YEC-, Evaluation Type: Evaluation A (Pre-1980)) is “inactive; negative”.
For `O=[N+]([O-])c1ccc2c(ccc[n+]2[O-])c1`, the mutagenic call (Species/Cell Type: Human diploid fibroblasts, Assay Type: Unscheduled DNA synthesis (UDS) in vitro, DNA effects, Assay Code: UDH-, Evaluation Type: Evaluation A (Pre-1980)) is “inactive; negative”.
Consider `NC(=O)c1cccc(N)c1`, for which the mutagenic call is, setting by setting: (Species/Cell Type: Chinese hamster ovary (CHO) cells, Assay Type: Forward gene mutation at the HPRT locus, Assay Code: CHOT, Evaluation Type: Evaluation B (Post-1980)) “no conclusion”; (Species/Cell Type: Human, Assay Type: Sister-chromatid exchange (SCE) in vitro, Assay Code: SC1+D, Dose Response: With dose response, Evaluation Type: Evaluation B (Post-1980)) “active; positive”; under setting [3], “active; positive”.
As to `CCOc1ccccc1[N+](=O)[O-]`, under setting [4], the mutagenic call is “active; positive”.
Consider `Cc1c2ccncc2c(C)c2c1[nH]c1ccc(N)cc12`, for which, where the note is “Species/Cell Type: Chinese hamster ovary (CHO) cells, Assay Type: Forward gene mutation at the HPRT locus, Assay Code: CHO+, Evaluation Type: Evaluation B (Post-1980)”, the mutagenic call is “active; positive”.
On to `CC(C(=O)O)c1ccc(N2CC=CC2)c(Cl)c1` (configuration not stated), for which, where the note is “Species/Cell Type: Human lymphocytes, Assay Type: Sister-chromatid exchange (SCE) in vivo, Assay Code: SCY+, Evaluation Type: Evaluation B (Post-1980)”, the mutagenic call is “active; positive”.
For `CCC(=O)C(CC(C)N(C)C)(c1ccccc1)c1ccccc1` (configuration not stated), the mutagenic call was “inactive; negative” (Species/Cell Type: Drosophila melanogaster, Assay Type: Sex-linked recessive lethal gene mutation, Assay Code: SRL-, Evaluation Type: Evaluation A (Pre-1980)); “inactive; negative” (Species/Cell Type: Drosophila melanogaster, Sex: Male, Assay Type: Heritable translocation test, chromosome aberrations, Assay Code: DHT-, Evaluation Type: Evaluation A (Pre-1980)); “no conclusion” (Species/Cell Type: Human, Sex: Male, Assay Type: Sperm morphology, Assay Code: SPHT, Evaluation Type: Evaluation A (Pre-1980)).
`CCCCN(N=O)C(CCC)OC(C)=O` (configuration not stated): the mutagenic call under setting [4] is “active; positive”.
In the case of `CON(C)C(=O)Nc1ccc(Cl)c(Cl)c1`, the mutagenic call (Species/Cell Type: Hordeum vulgare (barley), Assay Type: Chromosome aberrations, Assay Code: HOC+, Evaluation Type: Evaluation A (Pre-1980)) was “active; positive”; the mutagenic call under setting [5] is recorded as “no conclusion”; the mutagenic call (Species/Cell Type: Vicia faba, Assay Type: Chromosome aberrations, Assay Code: VIC+, Evaluation Type: Evaluation A (Pre-1980)) is “active; positive”.
For `O=c1[nH]c(=O)[nH]c(=O)[nH]1`, under “Species/Cell Type: Nonhuman, Assay Type: Sister-chromatid exchange (SCE) in vitro, Assay Code: SC2-, Evaluation Type: Evaluation B (Post-1980)”, the mutagenic call is “inactive; negative”.
Consider `O=[N+]([O-])c1ccc2[nH]ccc2c1`, for which the mutagenic call under setting [4] is “active; positive”.
Turning to `CC1CN1P(=O)(Cc1ccccc1)N1CC1C` (configuration not stated), the mutagenic call under setting [6] is “active; positive”.
`Cc1cc2nc3c(cc(N)c4ccccc43)oc-2cc1=[N+](C)C`: under “Species/Cell Type: Bacillus subtilis (H17 vs M45), Assay Type: Rec-assay, spot test, DNA effects (bacterial DNA repair), Assay Code: REW-, Evaluation Type: Evaluation A (Pre-1980)”, the mutagenic call was “inactive; negative”.
`O=C1c2cccc(O)c2C(=O)c2c(NCCNCCO)ccc(NCCNCCO)c21`: the mutagenic call (Species/Cell Type: Nonhuman, Assay Type: Sister-chromatid exchange (SCE) in vitro, Assay Code: SC2+, Evaluation Type: Evaluation B (Post-1980)) is “active; positive”.
Turning to `C=C1C(=O)O[C@@H]2C[C@@H](C)[C@@H]3C[C@H](O)O[C@@H](O)[C@@]3(C)C[C@H]12`, the mutagenic call under setting [4] was “active; positive”.
As to `O=c1ccc2cc3ccoc3cc2o1`, the mutagenic call is, setting by setting: (Species/Cell Type: Mammalian cell culture, nonhuman, Assay Type: Micronucleus test in vitro, chromosome aberrations, Assay Code: MN&+, Evaluation Type: Evaluation A (Pre-1980)) “active; positive”; (Species/Cell Type: Saccharomyces cerevisiae, Assay Type: Reverse gene mutation, Assay Code: YERT, Evaluation Type: Evaluation A (Pre-1980)) “no conclusion”.
With `C[C@@H]1Cc2c(Cl)cc(C(=O)NC(Cc3ccccc3)C(=O)O)c(O)c2C(=O)O1` (some centres not stated), the mutagenic call under setting [7] was “inactive; negative”.
`c1ccc2c(c1)Sc1ccccc1N2CCCN1CCNCC1`: the mutagenic call reads like this: under setting [1], “no conclusion”; under setting [2], “no conclusion”.
For the molecule `Cc1ccc(NC(=O)N(CCCl)N=O)cc1NC(=O)N(CCCl)N=O`, under setting [8], the mutagenic call was “active; positive”.
As to `OCc1ccccc1`, the mutagenic call (Species/Cell Type: Escherichia coli polA (W3119 vs P3478), Assay Type: Rec-assay, DNA effects (bacterial DNA repair), Assay Code: RE1-, Evaluation Type: Evaluation A (Pre-1980)) was “inactive; negative”.
As for `CC(C)CC=O`, the mutagenic call runs as follows: under setting [9], “active; positive”; under setting [10], “active; positive”.
Consider `CS(=O)(=O)OC[C@@H](O)[C@@H](O)[C@H](O)[C@H](O)COS(C)(=O)=O`, for which the mutagenic call under setting [6] is “active; positive”.
Turning to `COc1c2occc2cc2ccc(=O)oc12`, the mutagenic call was “inactive; negative” (Species/Cell Type: Aspergillus nidulans, Assay Type: Aneuploidy, chromosome aberrations, Assay Code: ASN-, Evaluation Type: Evaluation A (Pre-1980)); “no conclusion” (Species/Cell Type: Aspergillus nidulans, Assay Type: Forward gene mutation, Assay Code: ASFT, Evaluation Type: Evaluation A (Pre-1980)); “active; positive” under setting [9]; “no conclusion” (Species/Cell Type: Human lymphocytes, Assay Type: Sister-chromatid exchange (SCE) in vitro, Assay Code: SCLT, Evaluation Type: Evaluation A (Pre-1980)); “active; positive” under setting [10]; “no conclusion” (Species/Cell Type: Human, Assay Type: Sister-chromatid exchange (SCE) in vitro, Assay Code: SC1T, Evaluation Type: Evaluation A (Pre-1980)). Also, the mutagenic call runs as follows: (Species/Cell Type: Nonhuman, Assay Type: Sister-chromatid exchange (SCE) in vitro, Assay Code: SC2T, Evaluation Type: Evaluation A (Pre-1980)) “no conclusion”; (Species/Cell Type: Nonhuman, Assay Type: Sister-chromatid exchange (SCE) in vivo, Assay Code: SC3T, Evaluation Type: Evaluation B (Post-1980)) “no conclusion”; under setting [11], “active; positive”; under setting [12], “active; positive”; under setting [5], “no conclusion”. The call (Species/Cell Type: Nonhuman, Assay Code: CCGT, Evaluation Type: Evaluation A (Pre-1980)) was “no conclusion”.
`CN(N=O)C(=O)Nc1ccc(F)cc1`: the mutagenic call under setting [3] was “active; positive”.
As for `CC/C(=C(/CC)c1ccc(OP(=O)(O)O)cc1)c1ccc(OP(=O)(O)O)cc1`, the mutagenic call by setting is: (Species/Cell Type: Mammalian polychromatic erythrocytes, Assay Type: Micronucleus test, chromosome aberrations, Assay Code: MNTT, Evaluation Type: Evaluation A (Pre-1980)) “no conclusion”; (Species/Cell Type: Neurospora crassa, Assay Type: Aneuploidy, chromosome aberrations, Assay Code: NEN-, Evaluation Type: Evaluation A (Pre-1980)) “inactive; negative”; under setting [7], “inactive; negative”; (Species/Cell Type: Rodents, Sex: Male, Assay Type: Dominant lethal test, Assay Code: DLT+, Evaluation Type: Evaluation A (Pre-1980)) “active; positive”.
As for `O=C1OC2(c3cc(Br)c(O)cc3Oc3c2cc(Br)c(O)[c]3[Hg])c2ccccc21` (configuration not stated), the mutagenic call was “active; positive” (Species/Cell Type: Saccharomyces cerevisiae, Assay Type: Aneuploidy, chromosome aberrations, Assay Code: YEN+, Evaluation Type: Evaluation A (Pre-1980)) and “active; positive” under setting [8].
Take `ClC(Cl)C(Cl)Cl`: the mutagenic call is “active; positive” (Species/Cell Type: Escherichia coli polA (W3119 vs P3478), Assay Type: Rec-assay, DNA effects (bacterial DNA repair), Assay Code: RE1+, Evaluation Type: Evaluation A (Pre-1980)); “active; positive” under setting [8]; “active; positive” under setting [11]; “active; positive” under setting [12]. Moreover, the call (Species/Cell Type: Nonhuman, Assay Code: CCG+L, Evaluation Type: Evaluation A (Pre-1980)) is “active; positive”.
